Among the data in patent publication US12338237B2, “Derivatives having 1,2,3,4-tetrahydronaphthalene moiety or pharmaceutically acceptable salt thereof and pharmaceutical compositions comprising the same” (YUHAN CORPORATION, priority 2019, dated 2025) are IC50 values, retold here.

As a reminder, the IC50 is the concentration that inhibits the measured activity by half.

Assay [1] concerns the target glucosylceramide synthase (GCS) (Homo sapiens (Human), UniProt Q16739). Kind of assay: Evaluation of inhibitory activities against GCS (enzyme reaction with A549 cell lysate, NBD C6-ceramide, HPLC fluorescence). Format: biochemical. To be noted: GCS activity in A549 cell lysate, 37° C. for 90 minutes. On the procedure: Ibiglustat, known as a GCS inhibitor, was used as a control.
After the cells attached to the culture dish were washed with phosphate buffered saline (PBS), the cells were scraped off with a cell scraper and then centrifuged (4000 rpm, 3 min, 4° C.) to collect the cells in a 50 ml tube. The cell pellets were suspended in a lysis buffer (50 mM HEPES, pH 7.3, containing 1× the protease/phosphatase inhibitor cocktail), lysed by sonication, and then the lysate was centrifuged (13000 rpm, 10 min, 4° C.). The obtained supernatant was used for the quantitative analysis of proteins. The amount of proteins was measured using the BCA protein assay kit, using bovine serum albumin as a standard.
Enzymatic reactions were initiated by sequentially adding the following reaction materials to a 96 deep-well plate. Thereafter, the enzymatic reactions were performed at 37° C. for 90 minutes.
The enzymatic reactions were stopped by adding 100 μl of chloroform/methanol (2:1, v/v). After vortexing for 15 seconds, each mixture was centrifuged (4000 rpm, 10 min, 18° C.). The lower layer (50 μl) was transferred to a new 96 deep-well plate and dried with a reduced concentrator.
Data analysis was performed by the following equations. % Area (Sample)=Area (GlcCer)/[Area (Cer)+Area (GlcCer)]×100 % GCS activity=[Area(Sample)−Area(ibiglustat)]/[Area(DMSO)−Area(ibiglustat)]×100

Another assay has as its system GM1 production. The assay can be described thus: cells. The class given is cell-based.

Like-named read-outs stand apart in the source and are kept apart here.

Sequence of glucosylceramide synthase (GCS) (Q16739 whole entry, looked up): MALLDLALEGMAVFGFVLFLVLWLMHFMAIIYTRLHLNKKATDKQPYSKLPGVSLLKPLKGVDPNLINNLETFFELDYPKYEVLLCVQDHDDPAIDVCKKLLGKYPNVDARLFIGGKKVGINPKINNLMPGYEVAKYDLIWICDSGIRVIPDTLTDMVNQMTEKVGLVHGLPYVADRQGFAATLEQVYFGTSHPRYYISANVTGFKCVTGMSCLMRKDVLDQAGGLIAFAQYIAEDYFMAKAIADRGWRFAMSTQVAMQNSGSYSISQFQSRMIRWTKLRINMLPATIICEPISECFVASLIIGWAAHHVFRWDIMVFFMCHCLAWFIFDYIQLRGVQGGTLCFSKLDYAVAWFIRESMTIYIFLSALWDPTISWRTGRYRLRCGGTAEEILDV

With `O=C(NC1CCCc2cc(-c3cccc(C(F)(F)F)c3)ccc21)O[C@@H]1CN2CCC1CC2` (stereo partly drawn) [Example 7, (S)-quinuclidin-3-yl (6-(3-(trifluoromethyl)phenyl)-1,2,3,4-tetrahydronaphthalen-1-yl)carbamate], the IC50 in assay [1] was 1.69 nM; in the assay with GM1 production (Homo sapiens, Jurkat, 72 h), 13.6 nM.

`CCc1ccc(-c2ccc3c(c2)CCCC3NC(=O)O[C@@H]2CN3CCC2CC3)cc1` (stereo partly drawn) [Example 31, (S)-quinuclidin-3-yl (6-(4-ethylphenyl)-1,2,3,4-tetrahydronaphthalen-1-yl)carbamate]: the IC50 is 6.58 nM in assay [1] and 2.92 nM with GM1 production (Homo sapiens, Jurkat, 72 h). In the case of `CCCCOc1ccc(-c2ccc3c(c2)CCC(C)(C)C3NC(=O)O[C@@H]2CN3CCC2CC3)cc1Cl` (stereo partly drawn) [Example 143, (S)-quinuclidin-3-yl (6-(4-butoxy-3-chlorophenyl)-2,2-dimethyl-1,2,3,4-tetrahydronaphthalen-1-yl)carbamate], the IC50 in assay [1] is 1.44 nM; in the assay on GM1 production (Homo sapiens, Jurkat, 72 h) it was 0.5 nM. Turning to `COc1cccc(-c2ccc3c(c2)CCC2(CC2)C3NC(=O)O[C@@H]2CN3CCC2CC3)c1` (stereo partly drawn) [Example 216, (S)-quinuclidin-3-yl (6′-(3-methoxyphenyl)-3′,4′-dihydro-1′H-spiro[cyclopropane-1,2′-naphthalen]-1′-yl) carbamate], the results for the 50% inhibitory concentration (IC50) (in assay [1]; in the assay with GM1 production (read-out: IC50)) were 12.2 nM and 115 nM, respectively. As for `O=C(NC1CCCc2cc(-c3cccc(Cl)c3)ccc21)O[C@@H]1CN2CCC1CC2` (stereo partly drawn) [Example 6, (S)-quinuclidin-3-yl (6-(3-chlorophenyl)-1,2,3,4-tetrahydronaphthalen-1-yl)carbamate], the IC50 in assay [1] amounted to 0.697 nM; in the assay on GM1 production (Homo sapiens, Jurkat, 72 h), 15.8 nM. `CCCCc1ccc(-c2ccc3c(c2)CCCC3NC(=O)O[C@@H]2CN3CCC2CC3)cc1` (stereo partly drawn) [Example 33, (S)-quinuclidin-3-yl (6-(4-butylphenyl)-1,2,3,4-tetrahydronaphthalen-1-yl)carbamate]: the IC50 in assay [1] came out at 3.95 nM; in the assay on GM1 production (Homo sapiens, Jurkat, 72 h), 499 nM. On to `CC(C)Cc1ccc(-c2ccc3c(c2)CCC2(CC2)C3NC(=O)O[C@@H]2CN3CCC2CC3)cc1` (stereo partly drawn) [Example 224, (S)-quinuclidin-3-yl (6′-(4-isobutylphenyl)-3′,4′-dihydro-1′H-spiro[cyclopropane-1,2′-naphthalen]-1′-yl)carbamate], for which the IC50 in assay [1] is 1.53 nM; with GM1 production (Homo sapiens, Jurkat, 72 h), 6.7 nM.

Regarding `COCOc1ccc(-c2ccc3c(c2)CCCC3NC(=O)O[C@@H]2CN3CCC2CC3)cc1` (stereo partly drawn) [Example 26, (S)-quinuclidin-3-yl (6-(4-(methoxymethoxy)phenyl)-1,2,3,4-tetrahydronaphthalen-1-yl)carbamate], the IC50 in assay [1] worked out at 6.61 nM; in the assay with GM1 production (Homo sapiens, Jurkat, 72 h), 30.8 nM.

Consider `O=C(NC1c2cc(-c3ccccc3Cl)ccc2CCC12CC2)O[C@@H]1CN2CCC1CC2` (stereo partly drawn) [Example 180, (S)-quinuclidin-3-yl (7′-(2-chlorophenyl)-3′,4′-dihydro-1′H-spiro[cyclopropane-1,2′-naphthalen]-1′-yl)carbamate], for which the IC50 was found to be 9.54 nM in assay [1] and 99.1 nM in the assay on GM1 production (Homo sapiens, Jurkat, 72 h).

For `O=C(NC1CCCc2cc(-c3ccc(F)c(F)c3)ccc21)O[C@@H]1CN2CCC1CC2` (stereo partly drawn) [Example 15, (S)-quinuclidin-3-yl (6-(3,4-difluorophenyl)-1,2,3,4-tetrahydronaphthalen-1-yl)carbamate], the IC50 stood at 6.88 nM in assay [1] and 19.7 nM with GM1 production (Homo sapiens, Jurkat, 72 h). For `CN(C)c1cccc(-c2ccc3c(c2)CCC2(CC2)C3NC(=O)O[C@@H]2CN3CCC2CC3)c1` (stereo partly drawn) [Example 207, (S)-quinuclidin-3-yl (6′-(3-(dimethylamino)phenyl)-3′,4′-dihydro-1′H-spiro[cyclopropane-1,2′-naphthalen]-1′-yl)carbamate] the same measures were 23.2 nM and 57.3 nM.

On to `CCOc1cccc(-c2ccc3c(c2)CCC2(CC2)C3NC(=O)O[C@@H]2CN3CCC2CC3)c1` (stereo partly drawn) [Example 218, (S)-quinuclidin-3-yl (6′-(3-ethoxyphenyl)-3′,4′-dihydro-1′H-spiro[cyclopropane-1,2′-naphthalen]-1′-yl)carbamate], for which the IC50 in assay [1] came out at 19.8 nM; with GM1 production (Homo sapiens, Jurkat, 72 h), 63.3 nM. For `O=C(NC1CCCc2cc(-c3ccc(F)cc3F)ccc21)O[C@@H]1CN2CCC1CC2` (stereo partly drawn) [Example 18, (S)-quinuclidin-3-yl (6-(2,4-difluorophenyl)-1,2,3,4-tetrahydronaphthalen-1-yl)carbamate], the 50% inhibitory concentration (IC50) in assay [1] turned out to be 5.41 nM; with GM1 production (Homo sapiens, Jurkat, 72 h), 99.2 nM. Turning to `COc1ccc(-c2ccc3c(c2)CCC2(CC2)C3NC(=O)O[C@@H]2CN3CCC2CC3)c(Cl)c1` (stereo partly drawn) [Example 200, (S)-quinuclidin-3-yl (6′-(2-chloro-4-methoxyphenyl)-3′,4′-dihydro-1′H-spiro[cyclopropane-1,2′-naphthalen]-1′-yl)carbamate], the 50% inhibitory concentration (IC50) turned out to be 8.85 nM in assay [1] and 46 nM with GM1 production (Homo sapiens, Jurkat, 72 h).

In the case of `O=C(NC1CCCc2ccc(-c3cc(F)c(F)cc3F)cc21)O[C@@H]1CN2CCC1CC2` (stereo partly drawn) [Example 66, (S)-quinuclidin-3-yl (7-(2,4,5-trifluorophenyl)-1,2,3,4-tetrahydronaphthalen-1-yl)carbamate], the IC50 in assay [1] was 46.9 nM; in the assay on GM1 production (Homo sapiens, Jurkat, 72 h), 102 nM. Take `COc1ccc(Cl)c(-c2ccc3c(c2)CCC(C)(C)C3NC(=O)O[C@@H]2CN3CCC2CC3)c1` (stereo partly drawn) [Example 125, (S)-quinuclidin-3-yl (6-(2-chloro-5-methoxyphenyl)-2,2-dimethyl-1,2,3,4-tetrahydronaphthalen-1-yl)carbamate]: the half-inhibitory concentration (IC50) in assay [1] amounted to 1.1 nM; with GM1 production (Homo sapiens, Jurkat, 72 h), 2.04 nM. For the compound `COc1cccc(-c2ccc3c(c2)C(NC(=O)O[C@@H]2CN4CCC2CC4)CCC3)c1` (stereo partly drawn) [Example 77, (S)-quinuclidin-3-yl (7-(3-methoxyphenyl)-1,2,3,4-tetrahydronaphthalen-1-yl)carbamate], the IC50 worked out at 74.9 nM in assay [1] and 197 nM with GM1 production (Homo sapiens, Jurkat, 72 h). Regarding `O=C(NC1c2ccc(-c3cccc(C(F)(F)F)c3)cc2CCC12CC2)O[C@@H]1CN2CCC1CC2` (stereo partly drawn) [Example 192, (S)-quinuclidin-3-yl (6′-(3-(trifluoromethyl)phenyl)-3′,4′-dihydro-1′H-spiro[cyclopropane-1,2′-naphthalen]-1′-yl)carbamate], the IC50 in assay [1] worked out at 12.9 nM; with GM1 production (Homo sapiens, Jurkat, 72 h), 14 nM. In the case of `CCOc1ccccc1-c1ccc2c(c1)C(NC(=O)O[C@@H]1CN3CCC1CC3)CCC2` (stereo partly drawn) [Example 76, (S)-quinuclidin-3-yl (7-(2-ethoxyphenyl)-1,2,3,4-tetrahydronaphthalen-1-yl)carbamate], the IC50 in assay [1] was found to be 18.7 nM; in the assay with GM1 production (Homo sapiens, Jurkat, 72 h), 156 nM. For the compound `COc1ccc(-c2cc3c(cc2OC)C(NC(=O)O[C@@H]2CN4CCC2CC4)C(C)(C)CC3)cc1F` (stereo partly drawn) [Example 233, (S)-quinuclidin-3-yl (6-(3-fluoro-4-methoxyphenyl)-7-methoxy-2,2-dimethyl-1,2,3,4-tetrahydronaphthalen-1-yl)carbamate], the half-maximal inhibitory concentration (IC50) in assay [1] was 0.65 nM; in the assay with GM1 production (Homo sapiens, Jurkat, 72 h) it was 21.7 nM. For `O=C(NC1CCCc2cc(-c3ccccc3Cl)ccc21)O[C@@H]1CN2CCC1CC2` (stereo partly drawn) [Example 10, (S)-quinuclidin-3-yl (6-(2-chlorophenyl)-1,2,3,4-tetrahydronaphthalen-1-yl)carbamate] the same measures were 2.56 nM and 37.7 nM. As for `O=C(NC1c2ccc(-c3ccc(C4CC4)cc3)cc2CCC12CC2)O[C@@H]1CN2CCC1CC2` (stereo partly drawn) [Example 226, (S)-quinuclidin-3-yl (6′-(4-cyclopropylphenyl)-3′,4′-dihydro-1′H-spiro[cyclopropane-1,2′-naphthalen]-1′-yl)carbamate], the IC50 turned out to be 0.93 nM in assay [1] and 10.8 nM with GM1 production (Homo sapiens, Jurkat, 72 h). Take `O=C(NC1c2cc(-c3ccccc3F)ccc2CCC12CC2)O[C@@H]1CN2CCC1CC2` (stereo partly drawn) [Example 179, (S)-quinuclidin-3-yl (7′-(2-fluorophenyl)-3′,4′-dihydro-1′H-spiro[cyclopropane-1,2′-naphthalen]-1′-yl)carbamate]: the IC50 came out at 10 nM in assay [1] and 115 nM in the assay on GM1 production (Homo sapiens, Jurkat, 72 h). Consider `CC1(C)CCc2ccc(-c3ccc(Cl)cc3)cc2C1NC(=O)O[C@@H]1CN2CCC1CC2` (stereo partly drawn) [Example 152, (S)-quinuclidin-3-yl (7-(4-chlorophenyl)-2,2-dimethyl-1,2,3,4-tetrahydronaphthalen-1-yl)carbamate], for which the IC50 in assay [1] came out at 5.72 nM; with GM1 production (Homo sapiens, Jurkat, 72 h) it was 25.9 nM.

For the compound `COc1ccc(OC)c(-c2ccc3c(c2)CCC2(CC2)C3NC(=O)O[C@@H]2CN3CCC2CC3)c1` (stereo partly drawn) [Example 211, (S)-quinuclidin-3-yl (6′-(2,5-dimethoxyphenyl)-3′,4′-dihydro-1′H-spiro[cyclopropane-1,2′-naphthalen]-1′-yl)carbamate], the IC50 in assay [1] was determined as 27.6 nM; in the assay on GM1 production (Homo sapiens, Jurkat, 72 h), 147 nM.

With `O=C(NC1CCCc2ccc(-c3cccc(C(F)(F)F)c3)cc21)O[C@@H]1CN2CCC1CC2` (stereo partly drawn) [Example 60, (S)-quinuclidin-3-yl (7-(3-(trifluoromethyl)phenyl)-1,2,3,4-tetrahydronaphthalen-1-yl)carbamate], half-maximal inhibition in assay [1] (IC50) required 106 nM. In the case of `CC1(C)CCc2cc(-c3cccc(F)c3F)ccc2C1NC(=O)O[C@@H]1CN2CCC1CC2` (stereo partly drawn) [Example 102, (S)-quinuclidin-3-yl (6-(2,3-difluorophenyl)-2,2-dimethyl-1,2,3,4-tetrahydronaphthalen-1-yl)carbamate], the IC50 with GM1 production (read-out: IC50) stood at 1.43 nM.
